Measurements from PubChem BioAssay (NCI).
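Cultured in 96-well plates, cells were exposed to test compound for 48 hours across five concentrations. Here, GI50 denotes the concentration required for 50% inhibition of growth. The concentration for full growth arrest is given as TGI.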

Experiments:
Test in all cases: NCI tumour cell line growth inhibition, 48 h
[1] = system: A498 renal
[2] = system: A549 NSCLC
[3] = system: HCT-116 colon
[4] = system: HOP-92 NSCLC
[5] = system: IGROV1 ovarian
[6] = system: MDA-MB-231 breast
[7] = system: SF-539 CNS
[8] = system: SK-MEL-2 melanoma
[9] = system: SK-MEL-28 melanoma
[10] = system: SNB-75 CNS

O=C1C2CC(Cl)C(SSC3CC4C(=O)N(SC(Cl)(Cl)C(Cl)Cl)C(=O)C4CC3Cl)CC2C(=O)N1SC(Cl)(Cl)C(Cl)Cl (centres undefined)
TGI [1]: 7.73 µM | TGI [2]: 28.3 µM | TGI [3]: 7.38 µM | TGI [4]: 3 µM | TGI [5]: 3.06 µM | TGI [6]: 3.16 µM | TGI [7]: 6.89 µM | TGI [8]: 3.65 µM | TGI [9]: 6.18 µM | TGI [10]: 6.12 µM

NC(N)=NC(CC(=O)O)c1ccccc1 (centres undefined)
TGI [1]: > 100 µM | TGI [2]: > 100 µM | TGI [3]: > 100 µM | TGI [4]: > 100 µM | TGI [5]: > 100 µM | TGI [6]: > 100 µM | TGI [7]: > 100 µM | TGI [8]: > 100 µM | TGI [9]: > 100 µM | TGI [10]: > 100 µM

COc1ccccc1C(=O)/C=C/c1cc2cccc(OC)c2[nH]c1=O
GI50 [1]: 0.0158 µM | TGI [1]: 0.0788 µM | GI50 [2]: 0.069 µM | TGI [2]: 12.6 µM | GI50 [3]: < 0.0225 µM | TGI [3]: 0.632 µM | GI50 [4]: 0.115 µM | TGI [4]: 2.07 µM | GI50 [5]: 0.0523 µM | TGI [5]: 2.36 µM | GI50 [6]: 0.151 µM | TGI [6]: 1.79 µM | GI50 [7]: 0.0211 µM | TGI [7]: 0.0848 µM | GI50 [8]: 0.656 µM | TGI [8]: 4.7 µM | GI50 [9]: 1.08 µM | TGI [9]: 6.63 µM | GI50 [10]: 0.0191 µM | TGI [10]: 3.6 µM

CCCCCCCCCCCCc1ccc(C(=O)/C=C/C(=O)O)cc1
GI50 [1]: 13.2 µM | TGI [1]: 26.7 µM | GI50 [2]: 13.8 µM | TGI [2]: 30.7 µM | GI50 [3]: 1.54 µM | TGI [3]: 3.39 µM | GI50 [4]: 1.95 µM | TGI [4]: 5.78 µM | GI50 [5]: 1.95 µM | TGI [5]: 3.86 µM | GI50 [6]: 1.85 µM | TGI [6]: 4.5 µM | GI50 [7]: 1.73 µM | TGI [7]: 3.33 µM | GI50 [9]: 1.92 µM | TGI [9]: 3.74 µM | GI50 [10]: 1.66 µM | TGI [10]: 10.4 µM

O=C1CC(=O)N(C2CCCCC2)C(=O)N1c1ccccc1S(=O)(=O)Oc1ccccc1
TGI [1]: > 100 µM | TGI [2]: > 100 µM | TGI [3]: > 100 µM | TGI [4]: > 100 µM | TGI [5]: 30.2 µM | TGI [6]: > 100 µM | TGI [7]: > 100 µM | TGI [8]: > 100 µM | TGI [9]: > 100 µM | TGI [10]: > 100 µM

O=[N+]([O-])c1ccc(Sc2ncccn2)c([N+](=O)[O-])c1
GI50 [1]: 7.6 µM | TGI [1]: 20.7 µM | GI50 [2]: 3.95 µM | TGI [2]: 14.2 µM | GI50 [3]: 3.43 µM | TGI [3]: 11.8 µM | GI50 [4]: 1.15 µM | TGI [4]: 3.94 µM | GI50 [5]: 1.27 µM | TGI [5]: 13.6 µM | GI50 [6]: 5.31 µM | TGI [6]: 17.1 µM | GI50 [7]: 2.63 µM | TGI [7]: 8.82 µM | GI50 [8]: 7.15 µM | TGI [8]: 21.5 µM | GI50 [9]: 3.89 µM | TGI [9]: 13.5 µM | GI50 [10]: 4.51 µM | TGI [10]: 17.6 µM

OB([O][Hg][c]1ccccc1)[O][Hg][c]1ccccc1
GI50 [1]: 0.98 µM | TGI [1]: 2.48 µM | GI50 [2]: 1.83 µM | TGI [2]: 4.64 µM | GI50 [3]: 0.161 µM | TGI [3]: 0.307 µM | GI50 [4]: 0.185 µM | TGI [4]: 0.528 µM | GI50 [5]: 0.0949 µM | TGI [5]: 0.401 µM | GI50 [6]: 0.628 µM | TGI [6]: 1.89 µM | GI50 [7]: 1.09 µM | TGI [7]: 2.34 µM | GI50 [8]: 0.168 µM | TGI [8]: 0.509 µM | GI50 [9]: 0.318 µM | TGI [9]: 1.33 µM | GI50 [10]: 0.291 µM | TGI [10]: 1.36 µM

COc1cc[nH]c1/C=C1\C(=O)Nc2ccc(F)c(C#C[C@@H](O)[C@@H](N)[C@@H](C)O)c21
GI50 [1]: 0.397 µM | TGI [1]: 0.955 µM | GI50 [2]: 0.681 µM | TGI [2]: 3.13 µM | GI50 [3]: 0.323 µM | TGI [3]: 2.89 µM | GI50 [4]: 0.517 µM | TGI [4]: 1.96 µM | GI50 [5]: 0.618 µM | TGI [5]: 5.24 µM | GI50 [6]: 0.485 µM | TGI [6]: 2.37 µM | GI50 [7]: 0.472 µM | TGI [7]: 1.12 µM | GI50 [8]: 0.39 µM | TGI [8]: 0.923 µM | GI50 [9]: 0.648 µM | TGI [9]: 2.86 µM | GI50 [10]: 0.112 µM | TGI [10]: 0.75 µM

CC12OC(C(=O)C13CC3)C1C(=O)c3ccccc3C(=O)C12 (centres undefined)
GI50 [2]: 37.2 µM | TGI [2]: > 100 µM | GI50 [3]: 34 µM | TGI [3]: > 100 µM | GI50 [4]: 21.8 µM | TGI [4]: 60.7 µM | GI50 [5]: 23.1 µM | TGI [5]: 65.9 µM | GI50 [6]: 46.8 µM | TGI [6]: > 100 µM | GI50 [7]: 24.2 µM | TGI [7]: 54.6 µM | GI50 [8]: 47.1 µM | TGI [8]: > 100 µM | GI50 [9]: 21.6 µM | TGI [9]: 62.1 µM | GI50 [10]: 77.5 µM | TGI [10]: > 100 µM

COc1cc(-c2cc(C(=O)N3CCN(C(=O)c4ccccc4NCc4ccco4)CC3)nc3cc(-c4ccccc4)nn23)cc(OC)c1OC
GI50 [1]: 3.02 µM | TGI [1]: > 28.4 µM | GI50 [2]: 2.13 µM | TGI [2]: > 100 µM | GI50 [3]: 3.26 µM | TGI [3]: > 100 µM | GI50 [5]: 5.44 µM | TGI [5]: > 100 µM | GI50 [6]: 5.11 µM | TGI [6]: > 100 µM | GI50 [7]: 3.11 µM | TGI [7]: > 26 µM | GI50 [8]: 2.9 µM | TGI [8]: > 79.4 µM | GI50 [9]: 16.6 µM | TGI [9]: > 100 µM | GI50 [10]: 2.07 µM | TGI [10]: 19.3 µM
